# Experimental data from publication PMC5581131, “The novel sphingosine-1-phosphate receptors antagonist AD2900 affects lymphocyte activation and inhibits T-cell entry into the lymph nodes” (Oncotarget, 2017).
# Legend:
# CEM/C1 = assay: XTT viability assay, CEM/C1; assay type: cell-based, human; settings: 1-day treatment, compared with Jurkat (>10 μM)
# Description: Figure 1 AD2900 inhibits human lymphocyte proliferation in allogeneic activation (A, B) The levels of proliferative response of human peripheral blood lymphocytes (PBMCs) after 1-day pretreatment with different concentrations of AD2900, AD2750, YZ138, YZ158, and YZ297 (A) or AD2900, FTY720, and SEW2871 (B) were tested by human allogeneic mixed lymphocyte reaction (MLR) assay, followed by a [3H] thymidine incorporation analysis. (C) Apoptosis of AD2900-treated activated PBMCs was tested by AnnexinV-propidium iodide (PI) FACS analysis following 1-day AD2900 pretreatment and MLR. All the samples were compared to the untreated PBMC control. (D) IFN-γ secretion from activated PBMCs was tested by ELISA following a 1-day AD2900 pretreatment in MLR. On the 5th day of hMLR, supernatants were collected and assayed for the level of IFN-γ. (E) Jurkat cell viability after a 1-day treatment with different concentrations of AD2900, FTY720, and SEW2871 was tested by XTT viability assay. (F) H9, CEM/C1, and Molt4 cell viability after a 1-day treatment with different concentrations of AD2900 was tested by XTT viability assay. Graphs summarize the results of at least three independent experiments. Results of Student’s t-test: *(P < 0.05, two-tailed test), ** (P < 0.01, two-tailed test), *** (P < 0.001, two-tailed test), **** (P < 0.0001, two-tailed test). […]
# C57BL/6 mice = assay: T-cell subpopulations (naive, Tcm-like, Tef/em-like) in blood, spleen and lymph nodes, FACS; assay type: in vivo, mouse
# Description: We have shown that AD2900 has a unique effect on T-cell distribution in mice. Since T-cell subpopulations such as naïve T cells, central memory T cells (Tcm), and effector/effector memory T cells (Tef/em) have designated roles in the immune response, the influence of AD2900 on the localization of these subpopulations was investigated. The analysis of T-cell subpopulations was performed by FACS using antibodies against commonly accepted surface markers. Some of the molecules that we used as markers are involved in T-cell migration, and their expression can be affected by our treatment. […] Therefore, we refer to the CCR7-CD44+ T-cell population as Tef/em-like cells and to the CCR7+ CD44+ (Figure 6) or CD44+ CD62L+ (Supplementary Figure 4B) T-cell population as Tcm-like cells. The calculated cell number of the different subpopulations in control mice is shown in the left panel of Figure 6.
# Figure 6 AD2900 treatment influences the distribution of mice T-cell populations in the blood, spleen, and peripheral lymph nodes C57BL/6 mice were orally administered with AD2900 or FTY720, as shown in Figure 4. Leukocytes from blood, spleen, and pLNs were collected and stained with TCR-β, CD44, and CCR7 fluorescent antibodies and then analyzed by FACS analysis. The percentages of CCR7+ CD44+ Tcm-like cells (left panel), CCR7-CD44+ Tef/em-like cells (central panel), and CCR7 + CD44-naive T cells (right panel) of the total T-cell population (TCR-β+) in blood (A), spleen (B), and pLNs (C) are shown. All the significances are compared to untreated healthy mice. Results summarize three independent experiments. Results of Student’s t-test:*(P < 0.05, two-tailed test), ** (P < 0.01, two-tailed test), *** (P < 0.001, two-tailed test), **** (P < 0.0001, two-tailed test).
# Murine lymphocytes: The phenotype of murine lymphocytes was analyzed by flow cytometry using anti-CD3e-FITC, anti-CD19-PB, anti-CCR7-APC, anti-CD44-FITC, anti-CD62L-APC, and anti-TCR-β-PB (Biolegend, CA, USA).
# C57BL/6 female mice aged 7–8 weeks were obtained from Harlan Laboratories (Jerusalem, Israel). The animal study was conducted under appropriate conditions and was approved by the Institutional Animal Care and Use Committee of the Hebrew University of Jerusalem in accordance with the national laws and regulations for the protection of animals. AD2900 was dissolved in 10% BSA (MP Biomedicals, CA, USA) in DDW at 1 mg/ml and then further diluted in 200 ml water to get final concentrations at 1.8, 2.7, or 3.6 mg/l. AD2900 and FTY720 were supplied ad libitum to the mice for 2 days or 7 days. At the end of the experiment, blood was collected, and the mice were sacrificed and tissues (lymph nodes and spleen) were harvested.
# [1] = oral, as in Figure 4, % of total T cells
smiles,measurement,setting,value
CCCCCCCCCCCCCCCCNC(CO)(CO)CO [AD2900],"cell viability, CEM/C1",CEM/C1,reduced cell viability could be detected even at lower concentrations
same,Tcm-like cells in the blood and lymph nodes,C57BL/6 mice; compared to control,significantly downregulated
same,percentage of Tcm-like cells in the spleen,C57BL/6 mice; compared to control,significantly upregulated
same,percentage of naïve T-cell population among all T cells in the lymph nodes,C57BL/6 mice; compared with the untreated condition,remained the same
same,upregulation of the percentage of Tef/em-like cells in the blood,"C57BL/6 mice; oral, as in Figure 4",48% ± 1%
same,"naïve T cells (CCR7+CD44-) reduced, mean of up to, of that in the control, in the blood",C57BL/6 mice; [1],32% ± 6%
same,"naïve T cells (CCR7+CD44-) reduced, of that in the control, in the spleen",C57BL/6 mice; [1],38% ± 12%
